Source: patent US20080138280A1, “Composition and Methods For Inhibiting Cell Survival” (The Cleveland Clinic Foundation, priority 2003, published 2008)

What was measured:
[1] = tested on: NF-κB DNA binding activity; test: Electrophoretic mobility shift assay (EMSA) of NF-κB DNA binding activity, A375 cells; type: cell-based, human
Experimental: Electrophoretic mobility shift assay (EMSA). These methods apply generally to FIGS. 5, 9-10 which employ EMSA analysis. In FIG. 5, A375 cells were treated with NO donors (NO-Cbl, NOC-18, SNAP, 100 μM, 16 h), or with Apo2L/TRAIL (100 ng/ml) or TNF-α (20 ng/ml) for 1 h, or with the combination of NO donors (16 h) followed by Apo2L/TRAIL or TNF-α (1 h). Plates were washed twice with ice-cold PBS. Cells were resuspended in cold 1× lysis buffer (20 mM HEPES, 20 mM NaF, 1 mM Na3VO4, 1 mM EDTA, 1 mM DTT, 100 mM NaCl, 10% glycerol and protease inhibitors) and incubated on ice for 30 min followed by centrifugation at 4° C. at 10,000 rpm for 10 min. Supernatants were transferred to fresh tubes and protein concentrations were assessed using the Bradford method (Bio-RAD protein assay, BioRad, Hercules, Calif.). The NF-κB consensus binding sequence (5′[…] 3′) from the IFN-β gene promoter was end-labeled with γ^32P dATP ([…]) using T4 polynucleotide kinase. DNA binding reactions were performed in 20 μl volume containing 10 μg protein, 20 mM HEPES, 10 mM KCl, 0.1% NP-40, 0.5 mM DIT and 10% glycerol. The binding reaction was performed for 20 min at 25° C. Complexes were separated from the free probe on 6% non-denaturing polyacrylamide gels in 0.5×TBE buffer at 200 V for 2 h. Gels were dried and exposed to film.
Inhibition of NF-κB survival signaling by NO-Cbl. Because NF-κB is an important cell survival regulator, we examined the effects of NO-Cbl on NF-κB DNA binding activity. The NF-κB binding sequence from the IFN-β gene promoter was used as a probe to assess DNA binding activity. A375 cells were treated with TNF-α (20 ng/ml), Apo2L/TRAIL (100 ng/ml) or NO-Cbl (100 μM). FIG. 5, illustrates an Electrophoretic Mobility Shift Assay (EMSA) of NF-κB DNA binding activity. Pre-treatment of A375 cells with NO-Cbl inhibited the NF-κB DNA binding activity induced by Apo2L/TRAIL and TNF-α. […] NF-κB-luc transfected A375 cells were pre-treated with NO-Cbl followed by Apo2L/TRAIL or TNF-α. […] Cell lysates were analyzed for NF-κB-luc reporter activity. […]

[2] = tested on: NF-κB-luciferase reporter in A375 cells; test: Dual luciferase NF-κB reporter assay; type: cell-based, human
Experimental: Dual Luciferase NF-κB Reporter Assay. Please see FIG. 6. The NP-κB-luciferase (NF-κB-luc) reporter plasmid, containing a 2×NF-κB response element fused to the luciferase, has been previously characterized. Renilla luciferase (pRL-TK, Promega, Madison, Wis.) vector was used to normalize for transfection efficiency. A375 cells were transfected with 20 μg NF-κB-luc and 10 μg PRL-TK using Lipofectamine plus (Gibco BRL/Life Technologies, Invitrogen Carlsbad, Calif.). After transfection cells were allowed to recover overnight and were plated in 6 well plates. […] Cells were then harvested in 1× passive lysis buffer and luciferase activity was measured according to the manufacturer's protocol (Promega, Madison, Wis.) using a Wallac 1420 multilabel counter (Perkin Elmer, Gaithersburg, Md.). The fold induction of NF-κB-luciferase for each treatment was based on untreated values normalized to the fold induction of pRL-TK reporter values. The assays were performed in triplicate.
Transient transfection assays were performed to assess NF-κB transcriptional activity. A375 cells were co-transfected with a NF-κB-luciferase reporter (NF-κB-luc) and Renilla luciferase (to assess transfection efficiency). Cells were pre-treated with NO-Cbl (100 μM) for 16 h followed by treatment with Apo2L/TRAIL (100 ng/ml) or TNF-α (10 ng/ml) for 4 hours.

nitrosylcobalamin [NO-Cbl] was tested, and the “NF-κB DNA binding activity induced by Apo2L/TRAIL” value ([1]; NO donor 100 μM pre-treatment 16 h, Apo2L/TRAIL 100 ng/ml 1 h) was “inhibited”, the “NF-κB DNA binding activity induced by TNF-α” value ([1]; NO-Cbl 100 μM pre-treatment 16 h, TNF-α 20 ng/ml 1 h) was “inhibited” and the “inhibition of NF-κB activity in response to Apo2L/TRAIL” value ([2]; NO-Cbl 100 μM 16 h followed by Apo2L/TRAIL 100 ng/ml 4 hours) was 34%. The “inhibition of NF-κB activity in response to TNF-α” value ([2]; NO-Cbl 100 μM 16 h followed by TNF-α 10 ng/ml 4 hours) was 51%.
